Oligonucleotides are written 5' to 3', each unit as a sugar letter and its base; * is a phosphorothioate linkage, no mark a phosphodiester; rarer units and linkages stand in square brackets, end groups in braces. Plain capitals give the bases only. e = 2'-O-(2-methoxyethyl) (MOE); [5mC] = 5-methylcytosine; d = 2'-deoxy (DNA)
How the values were obtained:
Human STAT3 mRNA [1] = assay: Human STAT3 mRNA dose response in T-24 cells, real-time PCR with PPS 2033 (Table 19); assay type: cell-based; conditions: 16 hours, − decrease, + increase relative to untreated control
Outline: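 T-24 cells got oligonucleotide at 18.75, 37.5, 75 or 150 nM with LIPOFECTIN (3 ug/mL per 100 nM oligo) for 16 h. STAT3 mRNA was quantified by real-time RT-PCR with primer-probe set PPS 2033, normalized to RiboGreen total RNA, and expressed as change versus untreated cells.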

Human STAT3 mRNA [2] = assay: Human STAT3 mRNA dose response in A549 cells, real-time PCR with PPS 199 (Table 20); assay type: cell-based; conditions: 16 hours, LIPOFECTIN, − decrease, + increase relative to untreated control cells
Experimental: An additional dose-response experiment was preformed in A549 cells. A549 cells were treated with 18.75, 37.5, 75, or 150 nM of oligonucleotide mixed with 3 ug/mL LIPOFECTIN per 100 nM oligonucleotide as described by other examples herein. Control oligonucleotides used were ISIS 129686 (SEQ ID NO: 394) and ISIS 129690 (SEQ ID NO: 393). Untreated cells served as controls. Following 16 hours of treatment, RNA was prepared from cells for subsequent real-time PCR analysis.
Human STAT3 mRNA expression levels were quantitated by real-time PCR using primer probe set PPS 199 and gene target quantities were normalized using Ribogreen as described in other examples herein. A “−” or “+” designation in the dose response results indicates a decrease or increase of STAT 3 mRNA expression, respectively, relative to untreated control cells.

| Substance | Percent change of STAT3 expression using PPS 2033 (Human STAT3 mRNA [1]; 18.75 nM oligonucleotide) [%] | Percent change of STAT3 expression using PPS 2033 (Human STAT3 mRNA [1]; 37.5 nM oligonucleotide) [%] | Percent change of STAT3 expression using PPS 2033 (Human STAT3 mRNA [1]; 75 nM oligonucleotide) [%] | Percent change of STAT3 expression using PPS 2033 (Human STAT3 mRNA [1]; 150 nM oligonucleotide) [%] | Percent change of STAT3 expression in A549 cells using PPS 199 (Human STAT3 mRNA [2]; 18.75 nM oligonucleotide) [%] | Percent change of STAT3 expression in A549 cells using PPS 199 (Human STAT3 mRNA [2]; 37.5 nM oligonucleotide) [%] | Percent change of STAT3 expression in A549 cells using PPS 199 (Human STAT3 mRNA [2]; 75 nM oligonucleotide) [%] | Percent change of STAT3 expression in A549 cells using PPS 199 (Human STAT3 mRNA [2]; 150 nM oligonucleotide) [%] |
| --- | --- | --- | --- | --- | --- | --- | --- | --- |
| 337332 (antisense eG*eA*eA*eG*e[5mC]*d[5mC]*d[5mC]*dT*dT*dG*d[5mC]*d[5mC]*dA*dG*d[5mC]*e[5mC]*eA*eT*eG*eT) [compound 337332] | −66 | −79 | −85 | −91 | −31 | −61 | −77 | −87 |
| 337333 (antisense eA*eA*eG*eG*eA*dG*dA*dA*dG*d[5mC]*d[5mC]*d[5mC]*dT*dT*dG*e[5mC]*e[5mC]*eA*eG*e[5mC]) [compound 337333] | −46 | −70 | −82 | −90 | −8 | −39 | −59 | −75 |
| 337348 (antisense eT*e[5mC]*e[5mC]*eG*eA*dA*dT*dG*d[5mC]*d[5mC]*dT*d[5mC]*d[5mC]*dT*d[5mC]*e[5mC]*eT*eT*eG*eG) [compound 337348] | −53 | −76 | −83 | −86 | −26 | −43 | −55 | −77 |

From patent US20050074879A1, “Antisense oligonucleotide modulation of STAT3 expression” (priority 2000, published 2005)
